Source: patent publication US8653304B2, “2,3-dihydro-1H-indene-2-yl urea derivative and pharmaceutical application of same” (Toray Industries, Inc., priority 2009, dated 2014)

System: hyperalgesia in Chung model
Experiment: Hyperalgesia in neuropathic pain model (Chung model), plantar test
Format: in vivo
Conditions: SD rat, Chung model day 15, oral 100 mg/kg, 90 minutes after administration; FIG. 3
Text: The action of Compound (I) on hyperalgesia in pain models was studied. As the pain models, models partially modified from an inflammatory pain model (a carrageenin paw edema pain model) and neuropathic pain models (Bennett model and Chung model) described in documents (Anesth. Analg., 2009, Vol. 108, pp. 1680-1687; Pain, 1988, Vol. 33, pp. 87-107; and Pain, 1992, Vol. 50, pp. 355-363) were used.
The Bennett model was produced by lightly ligating the sciatic nerve in the left thigh of each Crl:CD (SD) rat (male, 6-week old, Charles River Laboratories Japan, Inc.) at 4 points with chromic catgut (4-0). Fourteen days after the Bennett model was produced, each test compound was orally administered, and plantar test was performed 90 minutes after the administration. The plantar test was carried out by measuring the pain threshold (sec) of the left footpad (model foot) using a plantar thermal stimulation device (Plantar test 7370, Ugo Basile) wherein the thermal stimulus intensity was set to 60. Each test compound was suspended in 0.5 w/v % methylcellulose (Wako Pure Chemical Industries, Ltd.) and the obtained solution was orally administered. Compound 46b described in the Examples was administered at a dose of 100 mg/kg, and gabapentin (Toronto Research Chemicals), which is an anticonvulsant, was administered as a comparative control agent at a dose of 100 mg/kg. […]

Q: How did the “pain threshold (sec), plantar test, compared to solvent-administered group” value turn out when `COc1c(NC(=O)N[C@@H]2Cc3ccccc3[C@@H]2O)cc(C(C)(C)C)cc1[C@@H](O)C(F)(F)F` [Compound 46b, 1-(5-tert-butyl-2-methoxy-3-((R)-2,2,2-trifluoro-1-hydroxyethyl)phenyl)-3-((1S,2R)-1-hydroxy-2,3-dihydro-1H-indene-2-yl)urea] was run?
A: Its value is “significantly elevated”.
